Test results reported in patent US6509163B1, “Methods of screening modulators of mammalian P2X7 purinergic receptors” (Glaxo Group Limited, priority 1997, dated 2003).

Tests used:
[1] = target: T1, rP2X7 receptor (Rattus norvegicus, UniProt Q64663); test: Whole-cell recordings in HEK293 cells transiently transfected with rP2X7 receptors (Example 3); format: cell-based
T1 construct: yielding a construct that encoded the entire P2X7 protein; expressed in transfected cells
T1 sequence (Q64663 1-595): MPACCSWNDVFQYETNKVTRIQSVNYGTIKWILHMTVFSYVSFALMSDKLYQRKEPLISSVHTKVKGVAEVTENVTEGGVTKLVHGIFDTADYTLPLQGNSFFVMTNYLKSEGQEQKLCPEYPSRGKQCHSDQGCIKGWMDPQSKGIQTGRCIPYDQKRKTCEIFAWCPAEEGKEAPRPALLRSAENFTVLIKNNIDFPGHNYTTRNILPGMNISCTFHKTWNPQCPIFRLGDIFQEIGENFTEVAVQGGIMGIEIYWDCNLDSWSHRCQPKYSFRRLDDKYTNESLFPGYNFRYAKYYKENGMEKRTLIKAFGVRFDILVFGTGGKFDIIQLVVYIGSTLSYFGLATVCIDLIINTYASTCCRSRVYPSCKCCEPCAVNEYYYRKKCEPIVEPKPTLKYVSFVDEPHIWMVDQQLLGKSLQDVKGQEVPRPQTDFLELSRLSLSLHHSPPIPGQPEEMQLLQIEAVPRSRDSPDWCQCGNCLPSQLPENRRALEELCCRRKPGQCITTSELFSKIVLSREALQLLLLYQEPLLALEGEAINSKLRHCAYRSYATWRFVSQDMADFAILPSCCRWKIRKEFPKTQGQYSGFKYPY
Procedure: (§1) Cell culture. HEK293 cells were transiently transfected with cDNA (1 μg/ml) and lipofectin dissolved in Optimem (GIBCO) placed into petri dishes containing four coverslips onto which cells were plated at a density of about 8×10^4/coverslip. Cells were washed 5 h later and normal DMEM applied. Electrophysiological studies or dye uptake measurements were carried out 18-49 h later. For each set of transfections, parallel experiments were performed on HEK cells transfected with cDNA encoding both rP2X7 and hP2X7 receptors.
Electrophysiological experiments. Whole-cell recordings were made using the EPC9 patch-clamp amplifier and Pulse acquisition programs (HEKA, Lambrecht, Germany). Patch pipettes (5-7 MΩ) contained (mM) CsCl or NaCl 154, EGTA 10, HEPES 5. The normal extracellular solution contained (mM) NaCg 147, KCl2, CaCl2 2, MgCl2 1, HEPES 10 and glucose 12, and the “low divalent” solution had no magnesium and 0.3 mM CaCl2. Agonists were delivered by U-tube delivery system; antagonists, when applied, were present in both superfusion and U-tube. Experiments were carried out at room temperature.

[2] = target: T2, r-hP2X7 (rat 1-346, human 347-595) (Rattus norvegicus, UniProt Q64663, A359S/A378V/A493C/A522V/A540S/C350F/D413N/D475V/E375Q/E438D/E521H/E537D/E539D/G538V/H448D/I354L/I464K/I516L/I541T/K419R/K544R/K576R/L353F/L437T/L525F/M459I/N356D/N481S/N490S/P390S/P407S/Q433A/Q463R/Q505A/Q585E/R366H/R491H/R501K/S370W/S443P/S445A/S449T/S514R/S552C/T348A/T361N/T434M/T584S/V367I/V467T/V559G/W410R/Y593S); test: Whole-cell recordings in HEK293 cells expressing chimeric r-hP2X7 receptors; format: cell-based; conditions: low divalent concentrations, after removal of BzATP, n=10
T2 construct: r-hP2X7 (rat 1-346, human 347-595); expressed in transfected cells; host or cells: HEK293 (transient)
T2 sequence (Q64663 1-595 T348A/C350F/L353F/I354L/N356D/A359S/T361N/R366H/V367I/S370W/E375Q/A378V/P390S/P407S/W410R/D413N/K419R/Q433A/T434M/L437T/E438D/S443P/S445A/H448D/S449T/M459I/Q463R/I464K/V467T/D475V/N481S/N490S/R491H/A493C/R501K/Q505A/S514R/I516L/E521H/A522V/L525F/E537D/G538V/E539D/A540S/I541T/K544R/S552C/V559G/K576R/T584S/Q585E/Y593S): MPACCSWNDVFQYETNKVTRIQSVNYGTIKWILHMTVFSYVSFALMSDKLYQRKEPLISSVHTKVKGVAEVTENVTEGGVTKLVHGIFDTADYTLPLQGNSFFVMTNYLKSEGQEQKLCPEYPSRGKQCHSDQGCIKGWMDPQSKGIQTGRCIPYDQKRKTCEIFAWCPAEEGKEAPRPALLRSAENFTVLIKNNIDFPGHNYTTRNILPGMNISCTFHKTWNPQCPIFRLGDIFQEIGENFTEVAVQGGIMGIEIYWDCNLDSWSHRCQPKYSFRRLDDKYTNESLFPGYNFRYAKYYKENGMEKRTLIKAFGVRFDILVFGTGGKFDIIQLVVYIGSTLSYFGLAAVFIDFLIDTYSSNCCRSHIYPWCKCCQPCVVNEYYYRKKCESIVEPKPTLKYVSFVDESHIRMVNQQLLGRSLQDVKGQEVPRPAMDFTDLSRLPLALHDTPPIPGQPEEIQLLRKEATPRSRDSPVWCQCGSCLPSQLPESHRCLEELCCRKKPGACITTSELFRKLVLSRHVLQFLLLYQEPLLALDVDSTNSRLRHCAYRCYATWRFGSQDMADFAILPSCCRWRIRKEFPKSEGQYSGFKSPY
From the text: Chimeras. A silent restriction site (NheI) was introduced at the equivalent positions in the rat and human cDNAs using the Pfu mutagenesis kit (Stratagene) (T to G at 1069 in rP2X7; G to A at 1072 in hP2X7) . A NheI-XhoI fragment corresponding to 3′ extremity of each cDNA was then excised and subcloned in the opposite plasmid (i.e. human 3′ end into rat background). The resulting chimeras were h-rP2X7 (human 1-346, rat 347-595) and r-hP2X7 (rat 1-346, human 347-595) (FIG. 5). All constructions were sequenced on their entire coding region.
as §1
Electrophysiological experiments. Whole-cell recordings were made using the EPC9 patch-clamp amplifier and Pulse acquisition programs (HEKA, Lambrecht, Germany). Patch pipettes (5-7 MΩ) contained (mM) CsCl or NaCl 154, EGTA 10, HEPES 5. […]

cation current induced by maximal concentration of BzATP ([1]; 30 μM BzATP, n=12): 1869±286 pA
current measured at 30 s, of the peak current ([1]; low extracellular divalent concentrations, n=13): 80±3%
current measured at 30 s, of peak [2]: 31±3
SMILES: Nc1ncnc2c1ncn2[C@@H]1O[C@H](COP(=O)(O)OP(=O)(O)OP(=O)(O)O)[C@@H](OC(=O)c2ccc(C(=O)c3ccccc3)cc2)[C@H]1O [BzATP, 3′-O-(4-benzoyl)benzoyl ATP]
